Experimental data as given in patent US7015228B2, “4-amino-2-(2-pyridyl)pyrimidines as microbicidal active substances” (Ciba Specialty Chemicals Corporation, priority 2001, dated 2006).
In brackets after ≈: the same amount, converted by molar mass. Where two headings read alike, the source gives them in different places.

Experiments:
Assay type in all cases: cell-based
[1] = test system: Epidermophyton floccosum DSM 10709; experiment: Minimum inhibitory concentration (MIC), further microorganisms; settings: Table 8, * = significant inhibition of growth, but not complete inhibition; for MIC: Epidermophyton floccosum, DSM10709
Method: (§1) Determination of the Minimum Inhibitory Concentration (MIC Value) in Microtitre Plates
(§2) Casein-soybean flour-peptone broth for preparation of pre-cultures of test bacteria and yeast.
(§3) Mycological slant agar for the pre-culture of moulds
(§4) The test substances are pre-dissolved in dimethyl sulfoxide (DMSO) and tested in a dilution series of 1:2.
(§5) Bacteria and yeast are cultured overnight in CASO broth, the mould is cultured overnight on mycological slant agar, and washed off using 10 ml of 0.85% sodium chloride solution (+0.1% Triton X-100).
(§6) All the test organisms are adjusted to an organism count of 1–5×10^6 CFU/ml using 0.85% sodium chloride solution.
(§7) The test substances are pre-pipetted into microtitre plates in amounts of 8 μl per well.
(§8) Pre-diluted organism suspensions are diluted 1:100 in CASO broth (bacteria and yeast) or Sabouraud 2% glucose broth (mould) and are added in amounts of 192 μl per well to the test substances.
(§9) The test batches are incubated for 48 hours at 37° C. (bacteria and yeast) or for 5 days at 28° C. (mould).
(§10) After incubation, the growth is determined on the basis of the turbidity of the test batches (optical density) at 620 nm in a microplate reader.
(§11) The minimum inhibitory concentration (MIC value) is the concentration of substance at which there is found (compared to the growth of the control) an appreciable inhibition of growth (≦20% growth) of the test organisms.
(§12) One microtitre plate is used for each test organism and substance concentration. All the substances are tested in duplicate.

[2] = test system: Micrococcus luteus ATCC 9341; experiment: as above; settings: Table 8, * = significant inhibition of growth, but not complete inhibition; for MIC: Micrococcus luteus, ATCC9341
Method: as §1, §2, §3, §4, §5, §6, §7, §8, §9, §10, §11, §12

[3] = test system: Staphylococcus aureus ATCC 9144; experiment: as above; settings: Table 8, * = significant inhibition of growth, but not complete inhibition; for MIC: Staphylococcus aureus, ATCC9144
Method: as §1, §2, §3, §4, §5, §6, §7, §8, §9, §10, §11, §12

[4] = test system: S. epidermidis ATCC 12228; experiment: as above; settings: Table 8, * = significant inhibition of growth, but not complete inhibition; for MIC: Staphylococcus epidermidis, ATCC12228
Method: as §1, §2, §3, §4, §5, §6, §7, §8, §9, §10, §11, §12

[5] = test system: Trichophyton mentagrophytes ATCC 9533; experiment: as above; settings: Table 8, * = significant inhibition of growth, but not complete inhibition; for MIC: Trichophyton mentagrophytes, ATCC9533
Method: as §1, §2, §3, §4, §5, §6, §7, §8, §9, §10, §11, §12

[6] = test system: Enterococcus hirae ATCC 10541; experiment: as above; settings: Table 8, * = significant inhibition of growth, but not complete inhibition; for MIC: Enterococcus hirae, ATCC10541
Method: as §1, §2, §3, §4, §5, §6, §7, §8, §9, §10, §11, §12

[7] = test system: Staphylococcus hominis DMS 20328; experiment: Minimum inhibitory concentration (MIC) in microtitre plates; settings: Table 7, 48 hours at 37° C., MIC = ≦20% growth compared to control; for MIC: Staphylococcus hominis, DMS20328, read-out: Minimum inhibitory concentration (MIC) S. hominis
Method: as §1, §2, §3
(§13) Examples of Test Organisms:
as §4, §5, §6, §7, §8, §9, §10, §11, §12

[8] = test system: Escherichia coli NCTC 8196; experiment: as above; settings: for MIC: Escherichia coli, NCTC8196
Method: as §1, §2, §3, §13, §4, §5, §6, §7, §8, §9, §10, §11, §12

[9] = Table 7, 48 hours at 37° C., MIC = ≦20% growth compared to control
[10] = Table 8, * = significant inhibition of growth, but not complete inhibition
[11] = Table 7, 48 hours at 37° C., MIC = ≦20% growth compared to control, read-out: Minimum inhibitory concentration (MIC) E. coli
[12] = Table 8, * = significant inhibition of growth, but not complete inhibition, read-out: Minimum inhibitory concentration (MIC) E. coli NCTC 8196

Row | SMILES | Minimum inhibitory concentration (MIC) Epidermophyton floccosum DSM 10709 [1] | Minimum inhibitory concentration (MIC) Micrococcus luteus ATCC 9341 [2] | Minimum inhibitory concentration (MIC) Staphylococcus aureus ATCC 9144 [3] | Minimum inhibitory concentration (MIC) S. epidermidis ATCC 12228 [4] | Minimum inhibitory concentration (MIC) Trichophyton mentagrophytes ATCC 9533 [5] | Minimum inhibitory concentration (MIC) Enterococcus hirae ATCC 10541 [6] | Minimum inhibitory concentration (MIC) S. hominis [7] | Minimum inhibitory concentration (MIC) E. coli [8, 9] | Minimum inhibitory concentration (MIC) E. coli NCTC 8196 [8, 10] | MIC [1] | MIC [2] | MIC [3] | MIC [4] | MIC [5] | MIC [6] | MIC [7] | MIC [8, 11] | MIC [8, 12]
1 | CCCCCCCCCCNc1nc(-c2ccccn2)nc(C)c1CC [compound 11] | >60 µg/mL | 1.9 µg/mL (≈ 5.36 µM) | 7.5 µg/mL (≈ 21.2 µM) | 7.5 µg/mL (≈ 21.2 µM) | >60 µg/mL | 7.5 µg/mL (≈ 21.2 µM) | 3.75 µg/mL (≈ 10.6 µM) | >120 µg/mL | >60 µg/mL |  |  |  |  |  |  |  |  | 
2 | CCCCCCCCCCNc1cc(C)nc(-c2ccccn2)n1 [compound 23] | *15 μg/mL | <0.5 µg/mL | 7.5 µg/mL (≈ 23 µM) | 7.5 µg/mL (≈ 23 µM) | 15 µg/mL (≈ 45.9 µM) | 3.75 µg/mL (≈ 11.5 µM) | 3.75 µg/mL (≈ 11.5 µM) | >120 µg/mL | >60 µg/mL |  |  |  |  |  |  |  |  | 
3 | CCCCCCCNc1cc(C(F)(F)F)nc(-c2ccccn2)n1 [compound 32] | *60 μg/mL | >0.5 µg/mL | 15 µg/mL (≈ 44.3 µM) | 7.5 µg/mL (≈ 22.2 µM) | >60 µg/mL | 7.5 µg/mL (≈ 22.2 µM) | 3.75 µg/mL (≈ 11.1 µM) | >120 µg/mL | >60 µg/mL |  |  |  |  |  |  |  |  | 
4 | CCCCCCCCNc1cc(C(F)(F)F)nc(-c2ccccn2)n1 [compound 33] | >60 µg/mL | <0.5 µg/mL | 15 µg/mL (≈ 42.6 µM) | 3.75 µg/mL (≈ 10.6 µM) | >60 µg/mL | 15 µg/mL (≈ 42.6 µM) | 2.5 µg/mL (≈ 7.09 µM) | >80 µg/mL | >60 µg/mL |  |  |  |  |  |  |  |  | 
5 | CCCCCCCCCNc1cc(C(F)(F)F)nc(-c2ccccn2)n1 [compound 34] | >60 µg/mL | >0.5 µg/mL | >60 µg/mL | *60 μg/mL | >60 µg/mL | 60 µg/mL (≈ 164 µM) | 3.75 µg/mL (≈ 10.2 µM) | >120 µg/mL | >60 µg/mL |  |  |  |  |  |  |  |  | 
6 | CCCCCCCCCCNc1cc(C(F)(F)F)nc(-c2ccccn2)n1 [compound 35] |  |  |  |  |  |  |  |  |  | > 60 µg/mL | < 0.5 µg/mL | 7.5 µg/mL (≈ 19.7 µM) | 7.5 µg/mL (≈ 19.7 µM) | > 60 µg/mL | 7.5 µg/mL (≈ 19.7 µM) | 3.75 µg/mL (≈ 9.86 µM) | > 120 µg/mL | > 60 µg/mL
7 | CCCCCCCCCCCCCCCCNc1cc(C(F)(F)F)nc(-c2ccccn2)n1 [compound 37] |  |  |  |  |  |  |  |  |  | > 60 µg/mL | 1 µg/mL (≈ 2.15 µM) | 15 µg/mL (≈ 32.3 µM) | 7.5 µg/mL (≈ 16.1 µM) | > 60 µg/mL | 30 µg/mL (≈ 64.6 µM) | > 120 µg/mL | > 120 µg/mL | > 30 µg/mL
8 | CC(C)c1cc(NCCCCCCCCCCCCN)nc(-c2ccccn2)n1 [compound 43] | >60 µg/mL | 3.75 µg/mL (≈ 9.43 µM) | 30 µg/mL (≈ 75.5 µM) | *15 μg/mL | >60 µg/mL | 30 µg/mL (≈ 75.5 µM) | 7.5 µg/mL (≈ 18.9 µM) | 60 µg/mL (≈ 151 µM) | >60 µg/mL |  |  |  |  |  |  |  |  | 
9 | CCCCCCCNc1cc(C(C)C)nc(-c2ccccn2)n1 [compound 44] |  |  |  |  |  |  |  |  |  | 60 µg/mL (≈ 192 µM) | 1 µg/mL (≈ 3.2 µM) | 15 µg/mL (≈ 48 µM) | 15 µg/mL (≈ 48 µM) | > 60 µg/mL | 15 µg/mL (≈ 48 µM) | 3.75 µg/mL (≈ 12 µM) | > 120 µg/mL | > 30 µg/mL
10 | CCCCCCCCNc1cc(C(C)C)nc(-c2ccccn2)n1 [compound 45] | >60 µg/mL | 3.75 µg/mL (≈ 11.5 µM) | 7.5 µg/mL (≈ 23 µM) | 7.5 µg/mL (≈ 23 µM) | >60 µg/mL | 3.75 µg/mL (≈ 11.5 µM) | 3.75 µg/mL (≈ 11.5 µM) | >120 µg/mL | >30 µg/mL |  |  |  |  |  |  |  |  | 
11 | CCCCCCCCCNc1cc(C(C)C)nc(-c2ccccn2)n1 [compound 46] | 60 µg/mL (≈ 176 µM) | 3.75 µg/mL (≈ 11 µM) | 30 µg/mL (≈ 88.1 µM) | 30 µg/mL (≈ 88.1 µM) | >60 µg/mL | 30 µg/mL (≈ 88.1 µM) | 3.75 µg/mL (≈ 11 µM) | >120 µg/mL | >60 µg/mL |  |  |  |  |  |  |  |  | 
12 | CCCCCCCCCCNc1cc(C(C)C)nc(-c2ccccn2)n1 [compound 47] |  |  |  |  |  |  |  |  |  | 60 µg/mL (≈ 169 µM) | < 0.5 µg/mL | 7.5 µg/mL (≈ 21.2 µM) | 3.75 µg/mL (≈ 10.6 µM) | 60 µg/mL (≈ 169 µM) | 3.75 µg/mL (≈ 10.6 µM) | 5 µg/mL (≈ 14.1 µM) | > 80 µg/mL | > 60 µg/mL
13 | CCCCCCCNc1cc(C(C)(C)C)nc(-c2ccccn2)n1 [compound 56] | *30 μg/mL | <0.5 µg/mL | 3.75 µg/mL (≈ 11.5 µM) | 3.75 µg/mL (≈ 11.5 µM) | *30 μg/mL | 1.9 µg/mL (≈ 5.82 µM) | 3.75 µg/mL (≈ 11.5 µM) | >120 µg/mL | >60 µg/mL |  |  |  |  |  |  |  |  | 
14 | CCCCCCCCNc1cc(C(C)(C)C)nc(-c2ccccn2)n1 [compound 57] | 60 µg/mL (≈ 176 µM) | <0.5 µg/mL | 1.9 µg/mL (≈ 5.58 µM) | 1.9 µg/mL (≈ 5.58 µM) | *60 μg/mL | 1.0 µg/mL (≈ 2.94 µM) | 3.75 µg/mL (≈ 11 µM) | >120 µg/mL | >60 µg/mL |  |  |  |  |  |  |  |  | 
15 | CCCCCCCCCNc1cc(C(C)(C)C)nc(-c2ccccn2)n1 [compound 58] | >60 µg/mL | <0.5 µg/mL | *1.9 μg/mL | 1.9 µg/mL (≈ 5.36 µM) | >60 µg/mL | 7.5 µg/mL (≈ 21.2 µM) | 3.75 µg/mL (≈ 10.6 µM) | >120 µg/mL | >60 µg/mL |  |  |  |  |  |  |  |  | 
